Here are results for 33 compounds from US20210277003A1, “OGA INHIBITOR COMPOUNDS” (Janssen Pharmaceutica NV, priority 2018, published 2021).

In assay [1] the target is T1, recombinant human Meningioma Expressed Antigen 5 (MGEA5), also referred to as O-GlcNAcase (OGA) (Homo sapiens, UniProt O60502).
T1 construct: Full length OGA enzyme was purchased at OnGene (cat #TP322411); purchased OnGene (so in the source)
T1 sequence (O60502 1-916): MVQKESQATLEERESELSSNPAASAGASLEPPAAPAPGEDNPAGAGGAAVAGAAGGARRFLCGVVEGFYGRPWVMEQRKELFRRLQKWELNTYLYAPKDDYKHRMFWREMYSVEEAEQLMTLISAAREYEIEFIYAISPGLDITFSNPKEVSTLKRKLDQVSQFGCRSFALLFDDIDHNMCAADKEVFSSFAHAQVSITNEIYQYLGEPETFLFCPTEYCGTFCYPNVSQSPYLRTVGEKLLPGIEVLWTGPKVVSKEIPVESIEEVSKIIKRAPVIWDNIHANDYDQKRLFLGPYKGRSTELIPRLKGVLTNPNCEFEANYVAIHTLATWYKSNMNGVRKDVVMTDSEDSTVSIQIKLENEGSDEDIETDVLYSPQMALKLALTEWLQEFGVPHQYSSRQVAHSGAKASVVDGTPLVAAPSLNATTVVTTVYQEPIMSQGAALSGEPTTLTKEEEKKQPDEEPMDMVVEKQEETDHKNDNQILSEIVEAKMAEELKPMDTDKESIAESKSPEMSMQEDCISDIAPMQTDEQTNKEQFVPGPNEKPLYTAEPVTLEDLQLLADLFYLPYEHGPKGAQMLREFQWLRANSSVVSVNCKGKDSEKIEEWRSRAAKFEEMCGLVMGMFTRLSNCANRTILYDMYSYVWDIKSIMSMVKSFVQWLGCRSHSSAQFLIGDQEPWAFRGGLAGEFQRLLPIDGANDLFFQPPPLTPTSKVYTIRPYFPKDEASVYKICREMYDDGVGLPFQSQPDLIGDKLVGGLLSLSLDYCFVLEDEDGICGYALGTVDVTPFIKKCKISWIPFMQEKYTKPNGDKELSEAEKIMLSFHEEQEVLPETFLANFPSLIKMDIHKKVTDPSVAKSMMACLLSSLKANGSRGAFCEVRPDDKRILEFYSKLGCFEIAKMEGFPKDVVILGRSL
The assay is described as follows: OGA biochemical assay: inhibition of hydrolysis of fluorescein mono-ß-D-N-Acetyl-Glucosamine (FM-GlcNAc), fluorescence readout. Conditions: FM-GlcNAc substrate; for Emax: read-out: Enzymatic Emax (%); for IC50: read-out: Enzymatic hOGA, pIC50 (converted). In outline:
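Full-length recombinant human OGA (2 nM) was pre-incubated with compound for 60 min, then reacted with 100 uM FM-GlcNAc for 6 h at room temperature in 200 mM citrate/phosphate pH 7.2 with 0.005% Tween-20. Reactions were stopped with pH 11.0 carbonate and fluorescein read at 485/538 nm. IC50 and Hill coefficient came from curve fitting.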

Assay [2] concerns OGA in HEK293 cells inducible for P301L mutant human Tau (isoform 2N4R). In words: OGA cellular assay: immunocytochemical detection of O-GlcNAcylated proteins (CTD110.6 antibody). The assay is classed as cell-based. Conditions: Homo sapiens, HEK293, 6 h, 6 hours incubation; for Emax: maximum = Thiamet G 200 uM; for EC50: read-out: Cellular hOGA, pEC50 (converted). The procedure, abridged:
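Cells seeded 2 days ahead in low-glucose assay medium and exposed to compounds for 6 h at 0.2% DMSO, then PFA-fixed and immunostained. Signal is 488 nm intensity from imaging (9 fields/well), with Hoechst nuclei counts as a toxicity check. IC50 from non-linear regression, with 200 uM Thiamet G per plate as maximum inhibition.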

The structures appear in SMILES notation. Some results are limits rather than exact numbers.

For the compound `CCC(F)(F)Cn1ccc2c(Nc3c(C)ccnc3C(C)C)nccc21` [Compound 112], in assay [1], the “Enzymatic hOGA; pIC50” value amounted to 8.88 and the maximal response (Emax) is 102%. In assay [2], the Emax is 92.3% and the EC50 is ~1.82 nM.
As to `CCCCn1ccc2c(Nc3c(C)cc4c(c3C)C(=O)N(C)C4)nccc21` [Compound 45], in assay [1], the Emax stood at 103% and the IC50 is 10.5 nM. For the same compound, in assay [2], the Emax was found to be 87% and the EC50 was 16.6 nM.
For the compound `Cc1ccnc(C(C)C)c1Nc1nccc2c1ccn2CC1CCCO1` (stereo not drawn) [Compound 138], in assay [1], the “Enzymatic hOGA; pIC50” value was 8.07 and the maximal response (Emax) was 103%. Further, in assay [2], the Emax amounted to 66.8% and the EC50 was 74.1 nM.
On the same counts, the results for `Cc1cc(OC(F)F)cc(Cl)c1Nc1nccc2c1ccn2CC1CC(F)(F)C1` [Compound 116] are 7.98, 104%, 61.8% and 55 nM.
On the same counts, the results for `Cc1ccnc(C(C)C)c1Nc1nccc2c1ccn2CC1CC(F)(F)C1` [Compound 117] are 8.26, 101%, 89.6% and 44.7 nM.
With `Clc1cccc(Cl)c1Nc1nccc2c1ccn2CC1CC1` [Compound 69], in assay [1], the Emax was 102% and the IC50 is 3.39 nM. In assay [2], the Emax worked out at 82% and the EC50 is 55 nM.
As to `Cc1ccnc(C)c1Nc1nccc2c1ccn2CC1CCCO1` (stereo not drawn) [Compound 137], in assay [1], the “Enzymatic hOGA; pIC50” value is recorded as 7.14 and the Emax came to 99.1%. In assay [2], the Emax was 60.4% and the EC50 is 513 nM.
For the compound `CCC(C)Cn1ccc2c(Nc3c(C)ccnc3C)nccc21.Cl` (stereo not drawn) [Compound 16], in assay [1], the “Enzymatic hOGA; pIC50” value came to 7.83 and the Emax came out at 101%. For the same compound, in assay [2], the Emax was determined as 85% and the EC50 is 32.4 nM.
On to `Cc1ccnc(OC(F)F)c1Nc1nccc2c1ccn2CC(C)(F)F` [Compound 132], for which, in assay [1], the “Enzymatic hOGA; pIC50” value stood at 7.94 and the Emax was found to be 99.7%. Besides, in assay [2], the Emax amounted to 82.2% and the EC50 is 110 nM.
Take `CCCCn1ccc2c(Nc3c(C)cc(C(=O)N4CCCC4)cc3C)nccc21` [Compound 75]: in assay [1], the Emax is 102% and the IC50 is 2.82 nM. Further, in assay [2], the Emax is 85% and the EC50 was 6.03 nM.
For `CCCCn1ccc2c(Nc3c(Cl)ccc4c3OCCO4)nccc21` [Compound 51], in assay [1], the Emax came out at 102% and the IC50 was 11.2 nM. Besides, in assay [2], the Emax came out at 76% and the EC50 is 117 nM.
As for `Cc1cc(Cl)cc(C)c1Nc1nccc2c1ccn2CC(C)(F)F` [Compound 150], in assay [1], the “Enzymatic hOGA; pIC50” value is given as 8.57 and the Emax was found to be 101%. For the same compound, in assay [2], the Emax was found to be 82.1% and the EC50 is 5.37 nM.
`Cc1cc(F)cc(C)c1Nc1nccc2c1ccn2CC1CC(F)(F)C1` [Compound 170]: in assay [1], the Emax was 100% and the IC50 was 27.5 nM. For the same compound, in assay [2], the Emax stood at 78.6% and the EC50 was 83.2 nM.
As for `CCCCn1ccc2c(Nc3c(C)ccc4[nH]nnc34)nccc21` [Compound 12], in assay [1], the “Enzymatic hOGA; pIC50” value was 7.31 and the Emax worked out at 99%. Besides, in assay [2], the Emax was 64% and the EC50 is 562 nM.
For `Cc1cc(F)cc(C(C)C)c1Nc1nccc2c1ccn2CC(C)(F)F` [Compound 148], in that order: 8.89, 102%, 87.5% and ~4.79 nM.
On the same counts, the results for `Cc1ccnc(C)c1Nc1nccc2c1ccn2CC1CCOC1` (stereo not drawn) [Compound 140] are 7.08, 103%, 63.9% and 603 nM.
On the same counts, the results for `Clc1cccc(Cl)c1Nc1nccc2c1ccn2CC1CCO1` (stereo not drawn) [Compound 159] are 8.87, 104%, 84% and 20.4 nM.
Take `CCCCn1ccc2c(Nc3c(C)cc(C(=O)N4CCOCC4)cc3C)nccc21` [Compound 56]: in assay [1], the Emax worked out at 101% and the IC50 is 2.69 nM. Besides, in assay [2], the Emax was 107% and the EC50 is 5.13 nM.
On to `Cc1cc(F)cc(C(C)C)c1Nc1nccc2c1ccn2CC1CCO1` (stereo not drawn) [Compound 163], for which, in assay [1], the “Enzymatic hOGA; pIC50” value came out at 8.63 and the Emax was 104%. Moreover, in assay [2], the Emax came to 90.3% and the EC50 was 4.17 nM.
On to `CC[C@H](O)Cn1ccc2c(Nc3c(C)cc(F)cc3C)nccc21` [Compound 145b], for which, in assay [1], the “Enzymatic hOGA; pIC50” value is given as 8.46 and the Emax turned out to be 102%. In assay [2], the Emax is 85.7% and the EC50 is 26.9 nM.
Consider `Clc1cccc(Cl)c1Nc1nccc2c1ccn2Cc1ccon1` [Compound 172], for which, in assay [1], the Emax was determined as 102% and the IC50 was 3.39 nM. Moreover, in assay [2], the Emax is 80.8% and the EC50 is 70.8 nM.
`Cc1cc(Cn2ccc3c(Nc4c(C)ccnc4C)nccc32)no1` [Compound 133]: in assay [1], the “Enzymatic hOGA; pIC50” value was determined as 8.16 and the Emax was determined as 101%. Also, in assay [2], the Emax came out at 76.1% and the EC50 was 87.1 nM.
As for `CC(C)(C#N)Cn1ccc2c(Nc3c(Cl)cc(F)cc3Cl)nccc21` [Compound 83], in assay [1], the Emax came out at 96% and the IC50 was 912 nM. For the same compound, in assay [2], the maximal effect (Emax) came out at 8% and the EC50 is > 1000 nM.
`CCCCn1ccc2c(Nc3c(C)cc(F)cc3C)nccc21` [Compound 73]: in assay [1], the Emax turned out to be 101% and the IC50 is 2.69 nM. In assay [2], the Emax was 93% and the EC50 is 53.7 nM.
For the compound `CCCCn1ccc2c(Nc3c(C)ccc4[nH]c(C)nc34)nccc21` [Compound 11], in assay [1], the “Enzymatic hOGA; pIC50” value was found to be 7.06 and the Emax was found to be 100%. In assay [2], the Emax stood at 80% and the EC50 was 288 nM.
On to `Cc1cncc(Cl)c1Nc1nccc2c1ccn2CCC1CC1` [Compound 65], for which, in assay [1], the Emax came out at 104% and the IC50 is 5.37 nM. In assay [2], the Emax is 69% and the EC50 was 120 nM.
On the same counts, the results for `N#Cc1ccc(-n2ccc3c(Nc4c(Cl)cccc4Cl)nccc32)nc1` [Compound 166] are 101%, 47.9 nM, 44.1% and 1000 nM.
For `CCCCn1ccc2c(Nc3c(C)cc4c(c3C)CC(=O)N(C)C4)nccc21` [Compound 88], in that order: 103%, 4.07 nM, 95% and 10.7 nM.
Regarding `Cc1cncc(C(C)(C)O)c1Nc1nccc2c1ccn2CC1CCO1` (stereo not drawn) [Compound 125], in assay [1], the “Enzymatic hOGA; pIC50” value is on record as 7.91 and the Emax worked out at 103%. Moreover, in assay [2], the Emax came out at 74.8% and the EC50 is 43.7 nM.
Take `CC(C)C(F)(F)Cn1ccc2c(Nc3c(Cl)cccc3Cl)nccc21` [Compound 196]: in assay [1], the Emax was found to be 104% and the IC50 is 1.51 nM. Further, in assay [2], the Emax stood at 91.7% and the EC50 was 8.51 nM.
On to `CCCCn1ccc2c(Nc3c(C)cc(C)c(Br)c3C)nccc21` [Compound 66], for which, in assay [1], the Emax is 103% and the IC50 was 3.8 nM. Besides, in assay [2], the Emax was 84% and the EC50 is 186 nM.
With `Cc1ccnc(C)c1Nc1nccc2c1ccn2CCC(C)(C)C#N` [Compound 26], in assay [1], the Emax was 100% and the IC50 was 191 nM. In addition, in assay [2], the Emax was found to be 64% and the EC50 was 479 nM.
On to `CCCCn1ccc2c(Nc3c(C)cc4c(c3C)OCCO4)nccc21` [Compound 53], for which, in assay [1], the Emax was 105% and the IC50 was 1.86 nM. In addition, in assay [2], the Emax is 82% and the EC50 is 20.4 nM.

By Emax is commonly meant the greatest response seen or fitted, relative to the assay's reference.
